What was measured:
HL60/ADR cells = assay: Assay for reversal of Adriamycin resistance (cell growth, MTS); assay type: cell-based, human; settings: test compound in addition to Adriamycin, samples diluted to 20 μM, 25 μl per 100 μl well, 72 hours
Description: HL60/ADR is a continuous cell line, which was selected for Adriamycin™ resistance by culturing HL60, a human acute myeloblastic leukemia cell line, in increasing concentrations of Adriamycin™ until a highly resistant variant was attained. (McGrath, T., et al., Biochem. […] Marquardt, D. and Center, M. S., Cancer Res., 52: 3157, (1992); and Marquardt, D., et al., Cancer Res., 50: 1426, (1990)). […] Cells were harvested; washed twice with assay medium (same as culture media); counted; and diluted to 2×10^5 cells/ml in assay medium. Fifty μl of cells were aliquoted into wells of a 96 well tissue culture plate. One column of each 96 well plate served as a negative control and received assay medium containing no cells. Test compounds and references compounds were dissolved in dimethyl sulfoxide (DMSO) at a concentration of 5 mM. […] Assay standards were run in quadruplicate. 25 μl of 0.4% DMSO was added to four wells as a solvent control. […] The plates were incubated at 37° Centigrade for 72 hours in a humidified incubator with a 5% CO2 atmosphere. A CellTiter96 Aqueous Assay Kit (Promega) was used to measure cell viability and vitality via […] of a tetrazolium salt. The assay was performed in accordance with the vendors instructions, which required 2 ml of MTS reagent being mixed with 0.1 ml of PMS reagent and 20 μl of this solution was added to each well. The plates were incubated for 3 hours at 37° C. Absorbance was determined at 490 nm using a microtitre plate reader. The ability of a test compound to reverse the resistance of HL60/ADR cells to Adriamycin was determined by comparison of the absorbance of the wells containing a test compound in addition to Adriamycin with the absorbance of wells containing Adriamycin without a test compound. Controls were used to eliminate background and to ensure the results were not artifactual. The results of the assay are expressed as percent inhibition of cell growth.

| SMILES | % Inhibition (percent inhibition of cell growth) (HL60/ADR cells) | melting point |
| --- | --- | --- |
| CCCc1c(OCCCOc2cc(O)c(-c3ccc(F)cc3)cc2CC)cccc1[S+]([O-])c1ccccc1C(=O)O (stereo not drawn) [Example 16, 2-[2-Propyl-3-[3-[2-ethyl-4-(4-fluorophenyl)-5-hydroxyphenoxy]propoxy]phenylsulfinyl]benzoic acid] | 35% | > 100 °C (dec.) |
| CCCc1c(OCCCOc2cc(O)c(-c3ccc(F)cc3)cc2CC)cccc1Sc1ccccc1C(=O)O [Example 15, 2-[2-Propyl-3-[3-[2-ethyl-4-(4-fluorophenyl)-5-hydroxyphenoxy]propoxy]thiophenoxy]benzoic acid] | 73% | 153 to 155 °C |
| CCCc1c(OCCCOc2cc(O)c(-c3ccc(F)cc3)cc2CC)cccc1S(=O)(=O)c1ccccc1C(=O)O (hydrate or solvate) [Example 17, 2-[2-Propyl-3-[3-[2-ethyl-4-(4-fluorophenyl)-5-hydroxyphenoxy]propoxy]phenylsulfonyl]benzoic acid hydrate] |  | 80 to 90 °C |
| CCCc1c(OCCCCCOc2cc(O)c(-c3ccc(F)cc3)cc2CC)cccc1Oc1ccccc1C(=O)O [Example 8, 2-[2-Propyl-3-[5-[2-ethyl-5-hydroxy-4-(4-fluorophenyl)phenoxy]pentoxy]phenoxy]benzoic acid] | 57% | 65 °C (dec.) |
| CCCCc1c(OCCCOc2cc(O)c(-c3ccc(F)cc3)cc2CC)cccc1Oc1ccccc1C(=O)O (hydrate or solvate) [Example 11, 2-[2-Butyl-3-[3-[2-ethyl-5-hydroxy-4-(4-fluorophenyl)phenoxy]propoxy]phenoxy]benzoic acid hydrate] |  | 62 to 64 °C |
| CCCc1c(OCCCOc2cc(O)c(-c3ccc(F)cc3)cc2CC)cccc1Oc1cc(F)ccc1C(=O)O [Example 7, 4-Fluoro-2-[2-propyl-3-[3-[2-ethyl-5-hydroxy-4-(4-fluorophenyl)phenoxy]propoxy]phenoxy]benzoic acid] | 72% | 62 to 64 °C |
| CCCc1c(OCCCCOc2cc(O)c(-c3ccc(F)cc3)cc2CC)cccc1Oc1ccccc1C(=O)O (hydrate or solvate) [Example 9, 2-[2-Propyl-3-[4-[2-ethyl-5-hydroxy-4-(4-fluorophenyl)-phenoxy]butoxy]phenoxy]benzoic acid sesquihydrate] |  | 65 to 68 °C |
| CCc1cc(-c2ccc(F)cc2)c(O)cc1OCCCOc1cccc(Oc2ccccc2C(=O)O)c1CC(C)C [Example 10, 2-[2-(2-Methylpropyl)-3-[3-[2-ethyl-5-hydroxy-4-(4-fluorophenyl)phenoxy]propoxy]phenoxy]benzoic acid] | 49% | 48 to 49 °C |
| CCCc1c(Cc2ccccc2C(=O)O)cccc1OCCCOc1cc(O)c(-c2ccc(F)cc2)cc1CC [Example 14, 2-[[2-Propyl-3-[3-[2-ethyl-5-hydroxy-4-(4-fluorophenyl)phenoxy]propoxy]phenyl]methyl]benzoic acid] | 58% | 150 to 151 °C |
